Data: patent US7119088B2, “Triazole compounds useful in therapy” (Pfizer Inc., priority 2003, dated 2006)
Counter-ions that a name gives are not always drawn.

molecular target: T1, human V1A receptor (Homo sapiens, UniProt P37288); experiment: V1A filter binding assay (screen 1.0); settings: [3H]-AVP binding to CHO-hV1A membranes; Ki by Cheng-Prusoff
T1 construct: host or cells: CHO (CHO-hV1A), membrane preparation
Protocol: 1.0 V1A Filter Binding Assay
Receptor binding assays were performed on cellular membranes prepared from CHO cells stably expressing the human V1A receptor, (CHO-hV1A). The CHO-hV1A cell line was kindly provided under a licensing agreement by Marc Thibonnier, Dept. of Medicine, Case Western Reserve University School of Medicine, Cleveland, Ohio. CHO-hV1A cells were routinely maintained at 37° C. in humidified atmosphere with 5% CO2 in DMEM/Hams F12 nutrient mix supplemented with 10% fetal bovine serum, 2 mM L-glutamine, 15 mM HEPES and 400 μg/ml G418. For bulk production of cell pellets, adherent CHO-hV1A cells were grown to confluency of 90–100% in 850 cm^2 roller bottles containing a medium of DMEM/Hams F12 Nutrient Mix supplemented with 10% fetal bovine serum, 2 mM L-glutamine and 15 mM HEPES. Confluent CHO-hV1A cells were washed with phosphate-buffered saline (PBS), harvested into ice cold PBS and centrifuged at 1,000 rpm. Cell pellets were stored at −80° C. until use. Cell pellets were thawed on ice and homogenised in membrane preparation buffer consisting of 50 mM Tris-HCl, pH 7.4, 5 mM MgCl2 and supplemented with a protease inhibitor cocktail, (Roche). The cell homogenate was centrifuged at 1000 rpm, 10 min, 4° C. and the supernatant was removed and stored on ice. The remaining pellet was homogenised and centrifuged as before. The supernatants were pooled and centrifuged at 25,000×g for 30 min at 4° C. The pellet was resuspended in freezing buffer consisting of 50 mM Tris-HCl, pH 7.4, 5 mM MgCl2 and 20% glycerol and stored in small aliquots at −80° C. until use. Protein concentration was determined using Bradford reagent and BSA as a standard.
Protein linearity followed by saturation binding studies were performed on each new batch of membrane. Membrane concentration was chosen that gave specific binding on the linear portion of the curve.
Compounds were tested for their effects on [^3H]-AVP binding to CHO-hV1A membranes, (^3H-AVP; specific activity 65.5 Ci/mmol; NEN Life Sciences). Compounds were solubilised in dimethylsulfoxide (DMSO) and diluted to working concentration of 10% DMSO with assay buffer containing 50 mM Tris-HCL pH 7.4, 5 mM MgCl2 and 0.05% BSA. […] The binding reaction was initiated by the addition of 200 μl membrane and the plates were gently shaken for 60 min at room temperature. […] The filters were washed three times with 1 ml ice cold wash buffer containing 50 mM Tris-HCL pH 7.4 and 5 mM MgCl2. The plates were dried and 50 μl Microscint-O (Packard instruments) was added to each well. The plates were sealed and counted on a TopCount Microplate Scintillation Counter (Packard Instruments). Non-specific binding (NSB) was determined using 1 μM unlabelled d(CH2)5Tyr(Me)AVP ([β-mercapto-β,β-cyclopentamethylenepropionyl,0-Me-Tyr^2,Arg^8]-vasopressin ) (βMCPVP), (Sigma). The radioligand binding data was analysed using a four parameter logistic equation with the min forced to 0%. […] Specific binding was calculated by subtracting the mean NSB cpm from the mean Total cpm. For test compounds the amount of ligand bound to the receptor was expressed as % bound=(sample cpm—mean NSB cpm)/specific binding cpm×100. The % bound was plotted against the concentration of test compound and a sigmoidal curve was fitted. The inhibitory dissociation constant (Ki) was calculated using the Cheng-Prusoff equation: Ki=IC50/(1+[L]/Kd) where [L] is the concentration of ligand present in the well and Kd is the dissociation constant of the radioligand obtained from Scatchard plot analysis.

T1 sequence (P37288 whole entry): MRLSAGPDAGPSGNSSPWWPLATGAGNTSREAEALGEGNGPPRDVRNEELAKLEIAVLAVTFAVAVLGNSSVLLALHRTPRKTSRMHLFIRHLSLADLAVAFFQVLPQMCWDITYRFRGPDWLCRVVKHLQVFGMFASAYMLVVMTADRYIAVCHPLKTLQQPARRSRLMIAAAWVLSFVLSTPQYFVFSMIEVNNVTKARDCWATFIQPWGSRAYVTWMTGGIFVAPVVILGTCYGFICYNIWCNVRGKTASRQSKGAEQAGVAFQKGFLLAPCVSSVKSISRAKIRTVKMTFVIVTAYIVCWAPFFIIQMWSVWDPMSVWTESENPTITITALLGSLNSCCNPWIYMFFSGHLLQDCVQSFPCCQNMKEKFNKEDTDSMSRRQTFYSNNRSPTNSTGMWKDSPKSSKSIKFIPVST

Row | SMILES | Ki
1 | CN1CCOC(CN2Cc3cc(Cl)ccc3-n3c(nnc3C3CCN(c4ccccn4)CC3)C2)C1 (single isomer, unassigned) [Example 73, 8-Chloro-5-(4-methyl-morpholin-2-ylmethyl)-1-(3,4,5,6-tetrahydro-2H-[1,2′]bipyridinyl-4-yl)-5,6-dihydro-4H-2,3,5,10b-tetraaza-benzo[e]azulene] | 6.84 nM
2 | CN1CCOC(CN2Cc3cc(Cl)ccc3-n3c(nnc3C3CCN(c4ccccn4)CC3)C2)C1 (single isomer, unassigned) [Example 74, 8-Chloro-5-(4-methyl-morpholin-2-ylmethyl)-1-(3,4,5,6-tetrahydro-2H-[1,2′]bipyridinyl-4-yl)-5,6-dihydro-4H-2,3,5,10b-tetraaza-benzo[e]azulene] | 6.02 nM
3 | CC(C)N1Cc2cc(Cl)ccc2-n2c(nnc2C2CCN(c3ccccn3)CC2)C1 [Example 6, 8-Chloro-5-isopropyl-1-(3,4,5,6-tetrahydro-2H-[1,2′]bipyridinyl-4-yl)-5,6-dihydro-4H-2,3,5,10b-tetraaza-benzo[e]azulene trihydrochloride] | 2.37 nM
4 | CN1Cc2cc(Cl)ccc2-n2c(nnc2C2CCN(c3ncccn3)CC2)C1 [Example 13, 8-Chloro-5-methyl-1-(1-pyrimidin-2-yl-piperidin-4-yl)-5,6-dihydro-4H-2,3,5,10b-tetraaza-benzo[e]azulene] | 13.9 nM
5 | CS(=O)(=O)N1Cc2cc(Cl)ccc2-n2c(nnc2C2CCN(c3ncccn3)CC2)C1 [Example 15, 8-Chloro-5-methanesulfonyl-1-(1-pyrimidin-2-yl-piperidin-4-yl)-5,6-dihydro-4H-2,3,5,10b-tetraaza-benzo[e]azulene] | 4.71 nM
6 | CN1CCc2cc(Cl)ccc2-n2c(nnc2C2CCN(c3ccccn3)CC2)C1 [Example 24, 13-Chloro-8-methyl-3-(3,4,5,6-tetrahydro-2H-[1,2′]bipyridinyl-4-yl)-2,4,5,8-tetraaza-tricyclo[9.4.0.0*2,6*]pentadeca-1(11),3,5,12,14-pentaene] | 1 nM
7 | Clc1ccc2c(c1)CCOCc1nnc(C3CCN(c4ccccn4)CC3)n1-2 [Example 27, 13-Chloro-3-(3,4,5,6-tetrahydro-2H-[1,2′]bipyridinyl-4-yl)-8-oxa-2,4,5-triaza-tricyclo[9.4.0.0*2,6*]pentadeca-1(11),3,5,12,14-pentaene] | 1.25 nM
8 | CN(C)CC(=O)N1Cc2cc(Cl)ccc2-n2c(nnc2C2CCN(c3ccccn3)CC2)C1 [Example 38, 1-[8-Chloro-1-(3,4,5,6-tetrahydro-2H-[1,2′]bipyridinyl-4-yl)-4H,6H-2,3,5,10b-tetraaza-benzo[e]azulen-5-yl]-2-dimethylamino-ethanone] | 4.63 nM
9 | O=C(N1CCOCC1)N1Cc2cc(Cl)ccc2-n2c(nnc2C2CCN(c3ccccn3)CC2)C1 [Example 59] | 1.32 nM
10 | Clc1ccc2c(c1)CN(c1ncccn1)Cc1nnc(C3CCN(c4ccccn4)CC3)n1-2 [Example 93, 8-Chloro-5-pyrimidin-2-yl-1-(3,4,5,6-tetrahydro-2H-[1,2′]bipyridinyl-4-yl)-5,6-dihydro-4H-2,3,5,10b-tetraaza-benzo[e]azulene] | 2.33 nM
11 | CN(C)S(=O)(=O)N1Cc2cc(Cl)ccc2-n2c(nnc2C2CCN(c3ncccn3)CC2)C1 [Example 100, 8-Chloro-1-(1-pyrimidin-2-yl-piperidin-4-yl)-4H,6H-2,3,5,10b-tetraaza-benzo[e]azulene-5-sulphonic acid dimethylamide] | 0.77 nM
12 | CN1CCc2nnc(C3CCN(c4ccccn4)CC3)n2-c2ccc(Cl)cc2C1 [Example 102, 13-Chloro-9-methyl-3-(3,4,5,6-tetrahydro-2H-[1,2′]bipyridinyl-4-yl)-2,4,5,9-tetraaza-tricyclo[9.4.0.0*2,6*]pentadeca-1(11),3,5,12,14-pentaene] | 4.16 nM
13 | CN1CCc2cc(Cl)ccc2-n2c(nnc2C2CCN(c3ncccn3)CC2)C1 [Example 103, 13-Chloro-8-methyl-3-(1-pyrimidin-2-yl-piperidin-4-yl)-2,4,5,8-tetraaza-tricyclo[9.4.0.0*2,6*]pentadeca-1(11),3,5,12,14-pentaene] | 2.02 nM
